Data published in publication PMC10384010, “Chromatographic Data in Statistical Analysis of BBB Permeability Indices” (Membranes, 2023).
Like-named read-outs stand apart in the source and are kept apart here.

What was measured:
[1] = Normal-phase TLC on silica gel 60 F254 (Rf); type: physicochemical; details: water:methanol:acetonitrile 60:20:20, ammonium acetate pH 7.4
[2] = Reversed-phase TLC on RP-2 silanized plates (Rf); type: physicochemical; details: silica gel 60 RP-2 F254 silanized; water:methanol:acetonitrile 60:20:20, ammonium acetate pH 7.4
[3] = entering the CNS / not entering the CNS; ref Drugbank [36]; cited from earlier work
[4] = cited from earlier work
[5] = cited from earlier work; remark: listed apart in the source
[6] = HPLC on IAM (immobilized artificial membrane) column, retention factor; type: physicochemical; details: IAM.PC.DD.2 column; for k(IAM) retention factor: 10 mM phosphate buffer pH 7.4:acetonitrile 80:20; for logkIAM: logarithm of retention factor, phosphate buffer pH 7.4:acetonitrile 80:20
[7] = plasma protein binding, given as fraction, ref Drugbank

NP (Rf from NP TLC plate) [1]	RP (Rf from RP-2 TLC plate) [2]	k(IAM) retention factor [6]	logkIAM [6]	Structure (SMILES)	CNS+/- [3]	Kp,uu,brain (unbound brain-to-plasma drug partition coefficient) ([4]; in vivo)	PB (protein binding) ([5]; plasma)	Kp,uu,brain (unbound brain-to-plasma drug partition coefficient) [4]	PB (protein binding) [5, 7]
0.3	–	–	–	CN(C)CCC=C1c2ccccc2COc2ccccc21 [doxepin]	1	–	–	3.11	0.755
0.54	0.55	21.72	1.34	CN1CCN2c3ccccc3Cc3ccccc3C2C1 (stereo not shown) [mianserin]	1	–	–	3.22	0.9
0.39	0.58	5.83	0.77	CN1CCN2c3ncccc3Cc3ccccc3C2C1 (stereo not shown) [mirtazapine]	1	–	–	3.85	–
0.93	0.92	0.32	-0.49	CC(=O)Nc1ccc(O)cc1 [paracetamol]	1	–	–	0.73	0.25
0.48	0.55	–	–	CCCN1C[C@H](CSC)C[C@@H]2c3cccc4[nH]cc(c34)C[C@H]21 [pergolide]	1	–	–	3.19	0.9
0.68	0.73	17.02	1.23	OCCOCCN1CCN(C2=Nc3ccccc3Sc3ccccc32)CC1 [quetiapine]	1	–	–	1.26	0.83

Structure (SMILES)	NP (Rf from NP TLC plate) [1]	RP (Rf from RP-2 TLC plate) [2]	k(IAM) retention factor [6]	logkIAM [6]	CNS+/- [3]	Kp,uu,brain (unbound brain-to-plasma drug partition coefficient) ([4]; in vivo)	PB (protein binding) ([5]; plasma)	Kp,uu,brain (unbound brain-to-plasma drug partition coefficient) [4]	PB (protein binding) [5, 7]
CN1C[C@H](C(=O)N[C@]2(C)O[C@@]3(O)[C@@H]4CCCN4C(=O)[C@H](Cc4ccccc4)N3C2=O)C[C@@H]2c3cccc4[nH]cc(c34)C[C@H]21 [dihydroergotamine]	0.72	0.78	–	–	0	0.02	0.93	–	–
O=C1NC(=O)C(c2ccccc2)(c2ccccc2)N1 [phenytoin]	0.97	0.87	1.78	0.25	1	–	–	0.66	0.9
CSc1ccc2c(c1)N(CCC1CCCCN1C)c1ccccc1S2 (stereo not shown) [thioridazine]	0.47	0.4	47.61	1.68	1	–	–	3.5	–
O=c1n(CCCN2CCN(c3cccc(Cl)c3)CC2)nc2ccccn12 [trazodone]	0.71	0.76	9.30	0.97	1	–	–	1.54	0.92
